# Measurements: publication PMC2748841 (Nature, 2009)
# “Also recorded” adds a separate entry of the source.
# How the values were obtained:
# [1] = target: APLP2 (Homo sapiens, UniProt Q06481); assay type: binding
# [2] = target: APP (Homo sapiens, UniProt P05067); assay type: binding
# [3] = test system: PrP-Fc; assay type: binding, mouse
# [4] = test system: control Fc protein; assay type: binding, human
# [5] = test system: PrP Δ52–91; assay type: binding, mouse
# [6] = test system: hippocampal neurons; assay type: binding, rat
# [7] = target: PrP^C (Mus musculus, UniProt P04925); assay type: binding
# [8] = target: T1, Sprn (Mus musculus, UniProt Q8BWU1); assay type: binding
# T1 sequence (Q8BWU1 whole entry, looked up): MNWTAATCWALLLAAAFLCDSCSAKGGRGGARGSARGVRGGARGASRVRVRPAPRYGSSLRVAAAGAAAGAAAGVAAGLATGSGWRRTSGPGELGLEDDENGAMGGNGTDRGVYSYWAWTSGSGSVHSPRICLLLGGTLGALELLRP
# [9] = target: Doppel (Homo sapiens, UniProt Q9UKY0); assay type: binding
# [10] = test system: receptor for advanced glycation endproducts (RAGE); assay type: binding
# [11] = test system: hippocampal cultures from Prnp −/− mice; assay type: binding, mouse
# [12] = target: PrP Δ32–121 (Mus musculus, UniProt P04925, DEL32-121); assay type: binding
# [13] = target: PrP Δ32–106 (Mus musculus, UniProt P04925, DEL32-106); assay type: binding
# [14] = test system: PrP Δ95–105; assay type: binding, mouse
# [15] = test system: PrP Δ70–105; assay type: binding, mouse
# [16] = test system: Schaffer collateral LTP, wild-type hippocampal slices; parameters: species or system mouse
# [17] = test system: Schaffer collateral LTP, Prnp −/− hippocampal slices; parameters: species or system mouse
# [18] = test system: NR-2B containing receptors; assay type: cell-based
# [19] = test system: NR-2D containing receptors; assay type: cell-based
# [20] = test system: hippocampal long-term potentiation; conditions: cited from earlier work
# [21] = assay type: physicochemical; conditions: pH 7
# Sequence of APLP2 (Q06481 32-763): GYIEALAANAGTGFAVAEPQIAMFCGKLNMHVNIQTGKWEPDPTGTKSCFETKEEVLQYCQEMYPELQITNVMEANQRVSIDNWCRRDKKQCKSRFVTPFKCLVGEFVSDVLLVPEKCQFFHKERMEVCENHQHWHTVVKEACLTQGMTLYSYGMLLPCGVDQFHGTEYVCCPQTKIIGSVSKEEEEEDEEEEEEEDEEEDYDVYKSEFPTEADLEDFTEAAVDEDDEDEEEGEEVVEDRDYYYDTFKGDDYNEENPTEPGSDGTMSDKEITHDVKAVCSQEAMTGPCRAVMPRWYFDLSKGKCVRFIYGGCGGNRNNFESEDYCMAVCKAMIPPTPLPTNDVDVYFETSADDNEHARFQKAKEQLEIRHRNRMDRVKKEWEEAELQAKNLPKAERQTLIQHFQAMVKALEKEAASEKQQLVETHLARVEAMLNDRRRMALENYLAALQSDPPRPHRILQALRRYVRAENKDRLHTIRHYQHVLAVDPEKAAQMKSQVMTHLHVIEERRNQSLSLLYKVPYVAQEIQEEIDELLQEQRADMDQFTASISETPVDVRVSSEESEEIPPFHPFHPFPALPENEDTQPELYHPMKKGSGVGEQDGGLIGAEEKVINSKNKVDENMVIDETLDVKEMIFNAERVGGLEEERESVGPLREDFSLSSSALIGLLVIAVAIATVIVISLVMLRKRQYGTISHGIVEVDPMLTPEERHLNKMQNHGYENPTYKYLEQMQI
substance,measurement,setting,value
Aβ42,binding to APLP2 (in words),[1],neither of these proteins binds Aβ42
same,binding to APP (in words),[2],neither of these proteins binds Aβ42
same,retention by PrP-Fc (in words),[3],retained Aβ42 peptide through a direct physical interaction
same,retention by control Fc,[4],retained neither freshly prepared nor oligomeric preparations of Aβ42
same,binding to PrP Δ52–91 (in words),[5],exhibits significant Aβ42 binding
Aβ42-oligomer,binding to hippocampal neurons,[6],saturable; also recorded: binds to 21 DIV hippocampal neurons
same,developmental dependence of neuronal binding,[6],minimal binding to neurons immediately after dissociation from E18 hippocampus; also recorded: Not until 15–20 days have elapsed in vitro does Aβ42-oligomer binding to neurons become robust
same,localization of binding on neurons,[6],most concentrated at post-synaptic densities; also recorded: localization of PrP immunoreactivity and Aβ42-oligomer binding overlap extensively
same,Kd,[6]; read-out: apparent KD,50 to 100 nM
same,effect of copper on binding to PrP,[7],does not alter Aβ42-oligomer binding
same,Kd,"[7]; read-out: KD, PrP",92 nM
same,affinity for Sprn (in words),[8],neither exhibited affinity for oligomeric Aβ42
same,affinity for Doppel (in words),[9],neither exhibited affinity for oligomeric Aβ42
same,binding to RAGE (in words),[10],"less Aβ42-oligomer binding signal than did PrP, APLP1 or TMEM30B"
same,reduction of punctate binding in Prnp −/− cultures,[11],50%
same,binding to PrP Δ32–121 (in words),[12],abrogates binding
same,binding to PrP Δ32–106 (in words),[13],no Aβ42-oligomer affinity
same,"reduction of binding, PrP Δ95–105",[14],80%
same,binding to PrP Δ70–105 (in words),[15],no further reduction
same,"effect on LTP, wild-type slices",[16],reduce LTP in hippocampal slices from wild-type mice
same,"effect on LTP, Prnp −/− slices",[17],no significant inhibition of LTP
same,effect on NR2B-containing NMDA receptor currents,[18],insensitive to Aβ42-oligomers
same,effect on NR2D-containing NMDA receptor currents,[19],insensitive to Aβ42-oligomers
same,effect on Schaffer collateral LTP,[20],suppress long-term potentiation (LTP)
"biotin-Aβ42-oligomer: Aβ42 with biotin moiety attached by 6-carbon linker to amino terminus, oligomerized",particle diameter,[21],5–6 nm
same,localization of binding on neurons,[6],very low levels in astroglial cells
freshly prepared biotin-Aβ42: freshly prepared Aβ42 with biotin attached by 6-carbon linker to amino terminus,binding to hippocampal neurons,[6],does not
